Laboratory results: the kinase profiling compilation of Christmann-Franck et al. (2016)

Columns and labels:
Test in all cases: Caliper, Mobility shift assay off-chip
[1] = target: DYRK4 (human) (UniProt Q9NR20)
[2] = target: AXL (human) (UniProt P30530)
[3] = target: PRKAA2 PRKAB1 PRKAG1 (human) (UniProt Q9Y478+P54646+P54619)
[4] = target: CAMK2A (human) (UniProt Q9UQM7)
[5] = target: ROS1 (human) (UniProt P08922)
[6] = test system: RET (human), P07949 [Y791F]
[7] = target: CDK1 (human) (UniProt P06493)
[8] = target: YES1 (human) (UniProt P07947)
[9] = target: CSNK1G2 (human) (UniProt P78368)
[10] = target: HIPK1 (human) (UniProt Q86Z02)
[11] = target: HIPK2 (human) (UniProt Q9H2X6)
[12] = target: MERTK (human) (UniProt Q12866)
[13] = target: ITK (human) (UniProt Q08881)
[14] = test system: PDGFRA (human), P16234 [V561D]
[15] = target: NTRK3 (human) (UniProt Q16288)
[16] = target: DCLK1 (human) (UniProt O15075)
[17] = test system: FGFR3 (human), P22607 [K650E]
[18] = target: FRK (human) (UniProt P42685)
[19] = target: DYRK3 (human) (UniProt O43781)
[20] = target: PHKG1 (human) (UniProt Q16816)
[21] = target: EPHA8 (human) (UniProt P29322)
[22] = test system: EGFR (human), P00533 [T790M]
[23] = target: TYRO3 (human) (UniProt Q06418)
[24] = target: MST1R (human) (UniProt Q04912)
[25] = target: ALK (human) (UniProt Q9UM73)
[26] = target: JAK2 JH1 JH2 (human) (UniProt O60674)
[27] = target: RET (human) (UniProt P07949)
[28] = target: RPS6KA6 KD1 KD2 (human) (UniProt Q9UK32)
[29] = target: MARK4 (human) (UniProt Q96L34)
[30] = target: KIT (human) (UniProt P10721)
[31] = target: PTK2B (human) (UniProt Q14289)
[32] = target: PRKCI (human) (UniProt P41743)
[33] = target: MELK (human) (UniProt Q14680)

AXL (human), sequence (P30530 whole entry, looked up): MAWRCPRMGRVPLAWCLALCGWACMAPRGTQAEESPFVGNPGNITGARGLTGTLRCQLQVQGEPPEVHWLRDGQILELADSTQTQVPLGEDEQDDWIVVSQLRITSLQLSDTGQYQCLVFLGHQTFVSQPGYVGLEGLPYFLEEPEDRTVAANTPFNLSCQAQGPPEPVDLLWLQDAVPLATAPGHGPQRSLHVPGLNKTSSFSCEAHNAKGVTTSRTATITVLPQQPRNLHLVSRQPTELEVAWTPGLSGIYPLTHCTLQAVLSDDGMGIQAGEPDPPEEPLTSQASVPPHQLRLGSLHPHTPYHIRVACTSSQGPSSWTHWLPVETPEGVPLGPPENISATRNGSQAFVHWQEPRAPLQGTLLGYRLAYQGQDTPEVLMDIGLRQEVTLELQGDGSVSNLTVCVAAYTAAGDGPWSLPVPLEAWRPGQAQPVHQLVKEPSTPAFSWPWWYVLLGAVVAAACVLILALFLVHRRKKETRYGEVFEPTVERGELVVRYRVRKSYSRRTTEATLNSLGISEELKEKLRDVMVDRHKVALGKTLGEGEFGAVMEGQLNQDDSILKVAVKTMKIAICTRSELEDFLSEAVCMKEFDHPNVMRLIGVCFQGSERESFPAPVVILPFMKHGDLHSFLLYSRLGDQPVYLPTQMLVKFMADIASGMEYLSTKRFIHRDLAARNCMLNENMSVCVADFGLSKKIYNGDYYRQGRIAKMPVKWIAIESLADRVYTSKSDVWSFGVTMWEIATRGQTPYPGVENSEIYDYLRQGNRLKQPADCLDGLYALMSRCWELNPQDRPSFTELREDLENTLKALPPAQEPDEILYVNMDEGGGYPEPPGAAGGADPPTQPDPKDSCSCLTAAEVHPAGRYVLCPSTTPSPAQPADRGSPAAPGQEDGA
RET (human), P07949 [Y791F], sequence (P07949 whole entry Y791F, looked up): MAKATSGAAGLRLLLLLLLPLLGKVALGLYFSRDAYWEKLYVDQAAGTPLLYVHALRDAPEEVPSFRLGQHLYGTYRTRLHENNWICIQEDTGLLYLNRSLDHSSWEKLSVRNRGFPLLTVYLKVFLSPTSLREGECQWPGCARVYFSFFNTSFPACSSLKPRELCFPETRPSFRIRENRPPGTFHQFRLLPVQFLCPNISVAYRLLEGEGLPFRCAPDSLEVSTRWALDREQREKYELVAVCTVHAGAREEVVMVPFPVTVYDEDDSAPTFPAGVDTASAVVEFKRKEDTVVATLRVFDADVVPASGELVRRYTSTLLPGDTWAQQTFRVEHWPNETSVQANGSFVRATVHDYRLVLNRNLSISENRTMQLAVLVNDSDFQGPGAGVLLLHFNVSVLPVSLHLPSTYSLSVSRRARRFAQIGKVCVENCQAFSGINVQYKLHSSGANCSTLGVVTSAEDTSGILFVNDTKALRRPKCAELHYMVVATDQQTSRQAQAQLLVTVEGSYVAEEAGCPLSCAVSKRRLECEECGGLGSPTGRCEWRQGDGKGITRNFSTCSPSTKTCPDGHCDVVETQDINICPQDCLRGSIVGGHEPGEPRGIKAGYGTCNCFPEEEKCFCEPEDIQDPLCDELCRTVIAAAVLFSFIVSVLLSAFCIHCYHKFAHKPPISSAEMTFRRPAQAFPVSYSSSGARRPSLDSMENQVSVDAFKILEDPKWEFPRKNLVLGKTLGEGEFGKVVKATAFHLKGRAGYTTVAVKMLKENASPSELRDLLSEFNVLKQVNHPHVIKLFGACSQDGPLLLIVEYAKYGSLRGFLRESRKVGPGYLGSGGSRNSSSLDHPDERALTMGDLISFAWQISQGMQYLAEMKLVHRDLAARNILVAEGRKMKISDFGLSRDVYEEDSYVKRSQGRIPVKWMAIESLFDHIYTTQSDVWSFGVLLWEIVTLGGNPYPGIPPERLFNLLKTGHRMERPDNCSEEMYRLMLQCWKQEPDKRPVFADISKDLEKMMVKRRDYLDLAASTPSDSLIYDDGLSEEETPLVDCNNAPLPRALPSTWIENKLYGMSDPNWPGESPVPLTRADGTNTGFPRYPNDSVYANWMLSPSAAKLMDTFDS
RPS6KA6 KD1 KD2 (human), sequence (Q9UK32 whole entry, looked up): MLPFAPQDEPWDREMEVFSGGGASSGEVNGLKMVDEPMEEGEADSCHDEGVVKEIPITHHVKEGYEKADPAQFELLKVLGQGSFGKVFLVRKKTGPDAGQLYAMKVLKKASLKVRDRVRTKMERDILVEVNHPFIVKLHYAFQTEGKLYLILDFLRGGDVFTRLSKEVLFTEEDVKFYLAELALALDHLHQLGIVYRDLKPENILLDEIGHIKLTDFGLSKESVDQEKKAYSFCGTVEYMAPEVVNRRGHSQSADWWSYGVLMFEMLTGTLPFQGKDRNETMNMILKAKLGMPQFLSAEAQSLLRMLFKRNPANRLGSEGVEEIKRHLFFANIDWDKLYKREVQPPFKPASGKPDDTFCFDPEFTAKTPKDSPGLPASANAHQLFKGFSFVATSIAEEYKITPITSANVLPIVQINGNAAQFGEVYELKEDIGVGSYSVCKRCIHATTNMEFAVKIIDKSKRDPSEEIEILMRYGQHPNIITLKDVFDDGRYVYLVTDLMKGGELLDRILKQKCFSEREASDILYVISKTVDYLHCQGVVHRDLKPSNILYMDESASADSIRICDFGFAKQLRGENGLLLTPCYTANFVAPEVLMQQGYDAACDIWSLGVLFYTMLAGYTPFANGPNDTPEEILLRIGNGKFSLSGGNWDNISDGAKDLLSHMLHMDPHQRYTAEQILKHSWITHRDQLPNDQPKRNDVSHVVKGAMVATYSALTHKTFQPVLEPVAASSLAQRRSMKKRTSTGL
CSNK1G2 (human), sequence (P78368 whole entry, looked up): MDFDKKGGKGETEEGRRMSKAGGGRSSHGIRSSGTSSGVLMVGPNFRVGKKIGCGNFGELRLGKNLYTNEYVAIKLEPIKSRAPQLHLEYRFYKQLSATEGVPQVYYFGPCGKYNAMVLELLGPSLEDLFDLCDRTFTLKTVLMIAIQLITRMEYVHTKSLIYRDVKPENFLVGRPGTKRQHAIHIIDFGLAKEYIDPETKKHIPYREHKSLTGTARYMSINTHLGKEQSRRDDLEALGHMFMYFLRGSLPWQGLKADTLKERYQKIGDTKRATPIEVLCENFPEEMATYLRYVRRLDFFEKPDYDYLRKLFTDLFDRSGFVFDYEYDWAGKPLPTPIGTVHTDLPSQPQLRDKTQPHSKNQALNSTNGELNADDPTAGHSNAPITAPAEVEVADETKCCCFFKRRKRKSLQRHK
DCLK1 (human), sequence (O15075 whole entry, looked up): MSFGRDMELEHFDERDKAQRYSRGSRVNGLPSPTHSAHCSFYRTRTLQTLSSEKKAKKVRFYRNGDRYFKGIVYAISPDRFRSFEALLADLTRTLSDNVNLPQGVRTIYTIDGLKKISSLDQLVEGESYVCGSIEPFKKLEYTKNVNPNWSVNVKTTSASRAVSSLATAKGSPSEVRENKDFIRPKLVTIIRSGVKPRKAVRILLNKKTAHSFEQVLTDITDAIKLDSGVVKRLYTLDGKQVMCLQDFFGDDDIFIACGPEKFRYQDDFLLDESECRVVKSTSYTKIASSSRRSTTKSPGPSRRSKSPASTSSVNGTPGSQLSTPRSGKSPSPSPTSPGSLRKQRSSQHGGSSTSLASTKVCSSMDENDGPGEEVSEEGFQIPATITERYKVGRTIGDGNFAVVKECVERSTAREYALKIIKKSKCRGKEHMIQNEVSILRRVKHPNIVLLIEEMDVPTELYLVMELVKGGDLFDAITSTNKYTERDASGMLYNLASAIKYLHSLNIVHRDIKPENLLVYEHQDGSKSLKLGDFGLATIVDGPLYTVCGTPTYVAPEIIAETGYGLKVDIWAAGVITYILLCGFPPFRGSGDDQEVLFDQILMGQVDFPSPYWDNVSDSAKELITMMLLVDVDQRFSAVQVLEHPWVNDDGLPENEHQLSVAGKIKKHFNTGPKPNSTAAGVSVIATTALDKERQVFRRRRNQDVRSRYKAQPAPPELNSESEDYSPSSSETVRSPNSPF
DYRK3 (human), sequence (O43781 whole entry, looked up): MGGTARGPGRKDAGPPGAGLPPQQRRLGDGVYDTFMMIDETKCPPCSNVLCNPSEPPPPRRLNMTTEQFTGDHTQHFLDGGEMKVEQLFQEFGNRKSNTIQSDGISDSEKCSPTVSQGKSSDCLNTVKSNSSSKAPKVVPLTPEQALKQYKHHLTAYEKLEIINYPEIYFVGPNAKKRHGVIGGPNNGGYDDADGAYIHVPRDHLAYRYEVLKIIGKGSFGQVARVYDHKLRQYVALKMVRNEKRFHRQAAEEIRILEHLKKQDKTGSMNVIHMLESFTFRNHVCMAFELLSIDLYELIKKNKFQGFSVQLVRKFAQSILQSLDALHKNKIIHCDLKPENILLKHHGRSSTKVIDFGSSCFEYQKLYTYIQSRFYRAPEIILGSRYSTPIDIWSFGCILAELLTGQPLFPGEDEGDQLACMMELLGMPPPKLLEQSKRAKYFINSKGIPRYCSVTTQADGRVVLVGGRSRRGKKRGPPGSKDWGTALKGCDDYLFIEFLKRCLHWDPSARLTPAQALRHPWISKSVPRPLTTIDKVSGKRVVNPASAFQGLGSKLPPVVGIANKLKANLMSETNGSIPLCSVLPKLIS
PHKG1 (human), sequence (Q16816 whole entry, looked up): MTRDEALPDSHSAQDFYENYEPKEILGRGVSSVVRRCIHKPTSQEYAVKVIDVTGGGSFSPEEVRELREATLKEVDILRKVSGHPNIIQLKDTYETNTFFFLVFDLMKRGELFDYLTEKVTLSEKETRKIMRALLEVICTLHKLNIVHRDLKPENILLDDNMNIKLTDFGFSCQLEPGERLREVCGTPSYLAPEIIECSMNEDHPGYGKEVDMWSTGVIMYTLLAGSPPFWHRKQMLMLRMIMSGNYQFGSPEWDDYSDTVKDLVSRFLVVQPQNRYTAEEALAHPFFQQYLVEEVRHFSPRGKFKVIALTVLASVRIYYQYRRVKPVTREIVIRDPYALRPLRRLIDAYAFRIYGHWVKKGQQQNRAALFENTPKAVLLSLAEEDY
RET (human), sequence (P07949 whole entry, looked up): as the sequence (P07949 whole entry Y791F, looked up) above, with F791Y counted along it

inhibition ([1]; compound 0.01 µM): 8.3%
inhibition ([1]; compound 0.1 µM): 12.1%
inhibition ([2]; compound 0.01 µM): -2.8%
inhibition ([2]; compound 0.1 µM): 11.7%
inhibition ([3]; compound 0.01 µM): 2.9%
inhibition ([3]; compound 0.1 µM): -0.1%
inhibition ([4]; compound 0.01 µM): -12.3%
inhibition ([4]; compound 0.1 µM): -3.8%
inhibition ([5]; compound 0.01 µM): 21.2%
inhibition ([5]; compound 0.1 µM): 6.6%
inhibition ([6]; compound 0.01 µM): 14.9%
inhibition ([6]; compound 0.1 µM): 1%
inhibition ([7]; compound 0.01 µM): -5.7%
inhibition ([7]; compound 0.1 µM): 1.6%
inhibition ([8]; compound 0.01 µM): -1.4%
inhibition ([8]; compound 0.1 µM): -1.7%
inhibition ([9]; compound 0.01 µM): 4.3%
inhibition ([9]; compound 0.1 µM): 1.3%
inhibition ([10]; compound 0.01 µM): 1.9%
inhibition ([10]; compound 0.1 µM): 4.6%
inhibition ([11]; compound 0.01 µM): -0.3%
inhibition ([11]; compound 0.1 µM): 7%
inhibition ([12]; compound 0.01 µM): 11%
inhibition ([12]; compound 0.1 µM): 9.5%
inhibition ([13]; compound 0.01 µM): -2.6%
inhibition ([13]; compound 0.1 µM): 15.3%
inhibition ([14]; compound 0.01 µM): 4.1%
inhibition ([14]; compound 0.1 µM): 19.6%
inhibition ([15]; compound 0.01 µM): 8.4%
inhibition ([15]; compound 0.1 µM): -0.4%
inhibition ([16]; compound 0.01 µM): 5.9%
inhibition ([16]; compound 0.1 µM): 12%
inhibition ([17]; compound 0.01 µM): -2.1%
inhibition ([17]; compound 0.1 µM): 5.1%
inhibition ([18]; compound 0.01 µM): 0.2%
inhibition ([18]; compound 0.1 µM): 3.2%
inhibition ([19]; compound 0.01 µM): 1.8%
inhibition ([19]; compound 0.1 µM): 19.6%
inhibition ([20]; compound 0.01 µM): 6.4%
inhibition ([20]; compound 0.1 µM): 14.9%
inhibition ([21]; compound 0.01 µM): 15.6%
inhibition ([21]; compound 0.1 µM): 0.3%
inhibition ([22]; compound 0.01 µM): -4.4%
inhibition ([22]; compound 0.1 µM): -7.2%
inhibition ([23]; compound 0.01 µM): -1.1%
inhibition ([23]; compound 0.1 µM): 9.2%
inhibition ([24]; compound 0.01 µM): 11.8%
inhibition ([24]; compound 0.1 µM): 37.6%
inhibition ([25]; compound 0.01 µM): 17.8%
inhibition ([25]; compound 0.1 µM): -2%
inhibition ([26]; compound 0.01 µM): 8.9%
inhibition ([26]; compound 0.1 µM): 11.9%
inhibition ([27]; compound 0.01 µM): 10.4%
inhibition ([27]; compound 0.1 µM): 12.1%
inhibition ([28]; compound 0.01 µM): 5.8%
inhibition ([28]; compound 0.1 µM): 3.2%
inhibition ([29]; compound 0.01 µM): 7.1%
inhibition ([29]; compound 0.1 µM): 2.2%
inhibition ([30]; compound 0.01 µM): -3.5%
inhibition ([30]; compound 0.1 µM): 13.6%
inhibition ([31]; compound 0.01 µM): -1%
inhibition ([31]; compound 0.1 µM): 6.8%
inhibition ([32]; compound 0.01 µM): 0.9%
inhibition ([32]; compound 0.1 µM): 1%
inhibition ([33]; compound 0.01 µM): 1.7%
inhibition ([33]; compound 0.1 µM): -0.5%
Compound: Cn1cc(-c2cnc3ccc4ccc(CS(=O)(=O)NC5CCCCC5)cc4c(=O)c3c2)cn1
